Test system: PDE 4
Assay: Inhibition of PDE 4 activity
Assay type: biochemical
Conditions: inhibitory concentration as -log IC50 (mol/l), method of Bauer and Schwabe adapted to microtiter plates

CCOc1cc2c(cc1OC)C([C@H]1CC[C@H](C(=O)OC)CC1)=N[C@H]1CCCC[C@@H]21 (relative stereo) [Compound 1]
-log IC50: 7.47

Source: patent US6214839A, “Substituted 6-alkylphenanthridines” (Byk Gulden Lomberg Chemische Fabrik GmbH, priority 1997, dated 2001)
